Assay results as given in patent US20230241071A1, “COMBINATION TREATMENT OF LIVER DISORDERS” (Terns Pharmaceuticals, Inc., priority 2021, published 2023).
Read-outs that look alike come from different tables or passages of the source. Marks after values point to notes of the source that are not given here.

Legend:
[1] = pH and solubilizer effect on solubility; assay type: physicochemical; settings: potassium salt; for solubility at 24 h: 25 °C, thermodynamic from solid
Method: Solubility of compound 2 (potassium salt) was evaluated at various pH levels.

[2] = Single-ascending dose trial of Compound 2 in healthy participants: safety and PK; assay type: in vivo, human; settings: for half-life / AUC(0-inf) / Cmax / Tmax: human, plasma, oral; for AUC(0-inf) / Cmax: mean; for fe, fraction of dose excreted in urine as unmodified compound 2: mean (% CV)
Method: A single-ascending dose clinical trial of Compound 2 (potassium salt) was performed.
Compound 2 plasma and urine concentrations were determined using validated liquid chromatography-tandem mass spectrometry assay
Urine samples for Compound 2 concentration and PK sampling were collected pre-dose and at the following timepoints: 0-6 hours, 6-12 hours, 12-24 hours, and 24-48 hours. PK parameters were estimated via noncompartmental methods using Phoenix® WinNonlin® (Certara, LP, Princeton, N.J.). Concentrations of serum pharmacodynamic (PD) biomarkers apolipoprotein B (Apo B) and sex hormone binding globulin (SHBG) were measured using an immunoassay and serum lipids were determined using spectrophotometry.

OATP1B3 = target: T1, OATP1B3 (Homo sapiens, UniProt Q9NPD5); assay: In vitro transporter inhibition, OATP1B3; assay type: in vitro ADME
T1 sequence (Q9NPD5 1-702): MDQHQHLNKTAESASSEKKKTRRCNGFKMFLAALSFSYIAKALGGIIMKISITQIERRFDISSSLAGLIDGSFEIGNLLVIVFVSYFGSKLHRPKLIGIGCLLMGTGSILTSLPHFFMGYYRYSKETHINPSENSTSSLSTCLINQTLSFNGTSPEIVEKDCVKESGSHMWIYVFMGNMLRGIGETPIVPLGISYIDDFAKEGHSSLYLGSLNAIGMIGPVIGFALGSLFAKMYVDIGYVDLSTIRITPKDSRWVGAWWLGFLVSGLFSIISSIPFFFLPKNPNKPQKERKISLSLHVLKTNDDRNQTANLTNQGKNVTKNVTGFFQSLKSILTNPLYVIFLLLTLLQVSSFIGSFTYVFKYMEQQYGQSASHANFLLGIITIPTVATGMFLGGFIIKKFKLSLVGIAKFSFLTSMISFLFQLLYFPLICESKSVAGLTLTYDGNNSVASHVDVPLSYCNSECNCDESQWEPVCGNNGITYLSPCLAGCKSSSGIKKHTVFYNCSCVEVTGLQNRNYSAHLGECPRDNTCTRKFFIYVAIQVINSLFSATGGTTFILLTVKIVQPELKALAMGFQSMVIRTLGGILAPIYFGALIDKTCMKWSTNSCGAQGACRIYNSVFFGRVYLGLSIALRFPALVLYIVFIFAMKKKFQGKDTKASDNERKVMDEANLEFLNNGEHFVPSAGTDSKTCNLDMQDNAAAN

[3] = single dose 3 mg, fasted (n = 6)
[4] = single dose 10 mg, fasted (n = 6)
[5] = single dose 30 mg, fasted (n = 6)
[6] = single dose 60 mg, fasted (n = 6)

## N#Cc1nn(-c2cc(Cl)c(Oc3n[nH]c(=O)c4ccccc34)c(Cl)c2)c(=O)[nH]c1=O [Compound 2, 2-(3,5-dichloro-4-((4-oxo-3,4-dihydrophthalazin-1-yl)oxy)phenyl)-3,5-dioxo-2,3,4,5-tetrahydro-1,2,4-triazine-6-carbonitrile]
[1]; 0.1N HCl with 2 wt % SLS, aqueous with cosolvent or surfactant or cyclodextrin, 0.1N HCl, with 2 wt % SLS
  solubility at 24 h: 5.7 µg/mL
[1]; 0.1N HCl, simulated gastric fluid, without 2 wt % SLS
  solubility at 24 h: < 0.03 µg/mL
[1]; pH 2.0 buffer with 2 wt % SLS, pH 2, aqueous with cosolvent or surfactant or cyclodextrin, pH 2.0 buffer, with 2 wt % SLS
  solubility at 24 h: 5.5 µg/mL
[1]; pH 2.0 buffer, pH 2, aqueous buffer, without 2 wt % SLS
  solubility at 24 h: < 0.07 µg/mL
[1]; pH 4.0 buffer with 2 wt % SLS, pH 4, aqueous with cosolvent or surfactant or cyclodextrin, pH 4.0 buffer, with 2 wt % SLS
  solubility at 24 h: 10 µg/mL
[1]; pH 4.0 buffer, pH 4, aqueous buffer, without 2 wt % SLS
  solubility at 24 h: < 0.07 µg/mL
[1]; pH 6.0 buffer with 2 wt % SLS, pH 6, aqueous with cosolvent or surfactant or cyclodextrin, pH 6.0 buffer, with 2 wt % SLS
  solubility at 24 h: 42.3 µg/mL
[1]; pH 6.0 buffer, pH 6, aqueous buffer, without 2 wt % SLS
  solubility at 24 h: 2.2 µg/mL
[1]; pH 8.0 buffer with 2 wt % SLS, pH 8, aqueous with cosolvent or surfactant or cyclodextrin, pH 8.0 buffer, with 2 wt % SLS
  solubility at 24 h: 302 µg/mL
[1]; pH 8.0 buffer, pH 8, aqueous buffer, without 2 wt % SLS
  solubility at 24 h: 10.8 µg/mL
[1]; pH 10.0 buffer with 2 wt % SLS, pH 10, aqueous with cosolvent or surfactant or cyclodextrin, pH 10.0 buffer, with 2 wt % SLS
  solubility at 24 h: 308 µg/mL
[1]; pH 10.0 buffer, pH 10, aqueous buffer, without 2 wt % SLS
  solubility at 24 h: 10.2 µg/mL
[1]; pH 10.0 buffer, 24 h, with 2 wt % SLS, 25° C.
  Solubility: 308.2 µg/mL
[2]; 24 hours after single dose
  heart rates: remained stable and within the normal range
[2]; all single doses
  renal excretion: Minimal renal excretion
[2]; 3 mg, single dose 3 mg, fasted (n = 6), median (min-max), read-out: t1/2 (converted)
  half-life: 17.3 h
[2]; 10 mg, single dose 10 mg, fasted (n = 6), median (min-max), read-out: t1/2 (converted)
  half-life: 14.4 h
[2]; 30 mg, single dose 30 mg, fasted (n = 6), median (min-max), read-out: t1/2 (converted)
  half-life: 15.7 h
[2]; 60 mg, single dose 60 mg, fasted (n = 6), median (min-max), read-out: t1/2 (converted)
  half-life: 13.8 h
[2]; single dose 3-60 mg, read-out: half-life (median) across single dose levels
  half-life: 13.8 to 17.3 h
[2]; [3]
  AUC(0-inf): 4060 ng·h/mL
  Cmax: 217 ng/mL
  fe, fraction of dose excreted in urine as unmodified compound 2: 2.95 (62) % dose, urine
[2]; single dose 3 mg, fasted (n = 6), median (min-max)
  Tmax: 4 h
[2]; [4]
  AUC(0-inf): 8110 ng·h/mL
  Cmax: 614 ng/mL
  fe, fraction of dose excreted in urine as unmodified compound 2: 2.05 (74) % dose, urine
[2]; single dose 10 mg, fasted (n = 6), median (min-max)
  Tmax: 4 h
[2]; [5]
  AUC(0-inf): 33000 ng·h/mL
  Cmax: 1800 ng/mL
  fe, fraction of dose excreted in urine as unmodified compound 2: 1.78 (35) % dose, urine
[2]; single dose 30 mg, fasted (n = 6), median (min-max)
  Tmax: 4 h
[2]; [6]
  AUC(0-inf): 50000 ng·h/mL
  Cmax: 3300 ng/mL
  fe, fraction of dose excreted in urine as unmodified compound 2: 1.53 (53) % dose, urine
[2]; single dose 60 mg, fasted (n = 6), median (min-max)
  Tmax: 4 h
[2]; single ascending doses up to 60 mg
  overall safety and tolerability: safe and well-tolerated
[2]; single dose 3 mg (n = 6)
  AEs by relationship to drug: Not related: 2 (33.3%)
  AEs by relationship to drug: Possibly related: 0
  AEs by relationship to drug: Related: 0
  AEs by relationship to drug: Unlikely related: 0
  Any AE, all CTCAE grades: 2 (33.3%)
  CTCAE Grade 1 AEs: 0
  CTCAE Grade 2 AEs: 0
  CTCAE Grade 3 or higher AEs: 0
  Serious AEs: 0
[2]; single dose 10 mg (n = 6)
  AEs by relationship to drug: Not related: 0
  AEs by relationship to drug: Possibly related: 0
  AEs by relationship to drug: Related: 0
  AEs by relationship to drug: Unlikely related: 0
  Any AE, all CTCAE grades: 0
  CTCAE Grade 1 AEs: 0
  CTCAE Grade 2 AEs: 0
  CTCAE Grade 3 or higher AEs: 0
  Serious AEs: 0
[2]; single dose 30 mg (n = 6)
  AEs by relationship to drug: Not related: 1 (16.7%)
  AEs by relationship to drug: Possibly related: 1 (16.7%)*
  AEs by relationship to drug: Related: 0
  AEs by relationship to drug: Unlikely related: 0
  Any AE, all CTCAE grades: 2 (33.3%)
  CTCAE Grade 1 AEs: 1 (16.7%)
  CTCAE Grade 2 AEs: 1 (16.7%)
  CTCAE Grade 3 or higher AEs: 0
  Serious AEs: 0
[2]; single dose 60 mg (n = 6)
  AEs by relationship to drug: Not related: 0
  AEs by relationship to drug: Possibly related: 0
  AEs by relationship to drug: Related: 0
  AEs by relationship to drug: Unlikely related: 0
  Any AE, all CTCAE grades: 0
  CTCAE Grade 1 AEs: 0
  CTCAE Grade 2 AEs: 0
  CTCAE Grade 3 or higher AEs: 0
  Serious AEs: 0
[2]; single dose 3-60 mg
  TSH, free T3, and free T4 levels: remained within the normal range
  cardiac related AEs: No cardiac related AEs
  exposures (AUC, Cmax), dose proportionality: approximately dose-proportional
  half-life (median) across single dose levels: > 13 h
  severity of adverse events: mild or moderate
  subjects with increases in ALT more than 2-times greater than ULN: No subjects
OATP1B3
  IC50: 710 nM
